Laboratory results: patent US6898533B1, “Methods for predicting the biological, chemical, and physical properties of molecules from their spectral properties” (The United States of America as represented by the …, priority 2000, dated 2005)

Legend:
estrogen receptor [1] = assay: estrogen receptor relative binding affinity, expanded training set of 107 compounds; conditions: input class, 107-compound training set
Description: The training set included weak estrogen receptor binders in addition to strong and medium estrogen receptor binders.
For this model, strong estrogen receptor binders were defined as having log(RBA)>−0.25 and weak estrogen receptor binders were defined as having log(RBA)<−3.0. Medium estrogen receptor binders were defined as having log(RBA) in between.

estrogen receptor [2] = conditions: 107-compound training set; cited from earlier work
estrogen receptor [3] = assay: estrogen receptor binding class of the 30-compound training set; conditions: SDAR training input endpoint class, 30 compounds
Description: Two Spectral Data-Activity Relationship (SDAR) models were established, based on ^13C NMR and EI MS spectra, for 30 estrogenic chemicals whose relative binding affinities (RBA) for the alpha (ERα) and beta (ERβ) estrogen receptors are available.
Strong binders to the estrogen receptor were classified as having a log (RBA) over 0.0, and medium binders to the estrogen receptor were classified as having a log (RBA) of less than or equal to 0.0.

## 4,4′-Methylenebis (N,N-dimethyl)
Estrogen receptor [1]
  Class: W (weak estrogen receptor binders were defined as having log(RBA)<−3.0)

## C(C=Cc1ccccc1)=Cc1ccccc1 [1,4-Diphenyl-1,3-butadiene]
Estrogen receptor [1]
  Class: W (weak estrogen receptor binders were defined as having log(RBA)<−3.0)

## OCCCCCCCCO [1,8-Octanediol]
Estrogen receptor [1]
  Class: W (weak estrogen receptor binders were defined as having log(RBA)<−3.0)

## COc1ccc(C(=O)c2ccccc2O)c(O)c1 [2,2′-Dihydroxy4-methoxybenzophene]
Estrogen receptor [1]
  Class: W (weak estrogen receptor binders were defined as having log(RBA)<−3.0)

## Oc1ccc(Cl)cc1Cc1cc(Cl)ccc1O [2,2′-Methylenebis (4-chlorophenol)]
Estrogen receptor [1]
  Class: M (Medium estrogen receptor binders were defined as having log(RBA) in between)
Estrogen receptor [2]
  log RBA: −2.45

## O=C(O)COc1cc(Cl)c(Cl)cc1Cl [2,4,5-T]
Estrogen receptor [1]
  Class: W (weak estrogen receptor binders were defined as having log(RBA)<−3.0)

## O=C(c1ccccc1)c1ccc(O)cc1O [2,4-Dihydroxybenzophenone]
Estrogen receptor [1]
  Class: W (weak estrogen receptor binders were defined as having log(RBA)<−3.0)
Estrogen receptor [2]
  log RBA: −2.61

## Oc1cccc(-c2ccccc2)c1 [3-Phenylphenol]
Estrogen receptor [2]
  log RBA: −3.44

## O=C(c1ccc(O)cc1)c1ccc(O)cc1 [4,4′-Dihydroxybenzophenone]
Estrogen receptor [1]
  Class: M (Medium estrogen receptor binders were defined as having log(RBA) in between)
Estrogen receptor [2]
  log RBA: −2.46

## CC(C)(C)c1cc(Cc2cc(C(C)(C)C)c(O)c(C(C)(C)C)c2)cc(C(C)(C)C)c1O [4,4′-Methylene(2,6-ditertbutylphenol)]
Estrogen receptor [1]
  Class: W (weak estrogen receptor binders were defined as having log(RBA)<−3.0)

## O=S(=O)(c1ccc(O)cc1)c1ccc(O)cc1 [4,4′-Sulfonylphenol]
Estrogen receptor [1]
  Class: W (weak estrogen receptor binders were defined as having log(RBA)<−3.0)
Estrogen receptor [2]
  log RBA: −3.07

## Oc1ccc(OCc2ccccc2)cc1 [4-Benzyloxyphenol]
Estrogen receptor [1]
  Class: W (weak estrogen receptor binders were defined as having log(RBA)<−3.0)
Estrogen receptor [2]
  log RBA: −3.44

## Cc1cc(O)ccc1Cl [4-Chloro-3-methylphenol]
Estrogen receptor [2]
  log RBA: −3.38

## CCCCCCCCCc1ccc(O)cc1 [4-Nonylphenol]
Estrogen receptor [1]
  Class: M (Medium estrogen receptor binders were defined as having log(RBA) in between)
Estrogen receptor [2]
  log RBA: −1.45

## CC/C(=C(\c1ccc(O)cc1)c1ccc(OCCN(C)C)cc1)c1ccccc1 [4-OH-Tamoxifen]
Estrogen receptor [1]
  Class: S (strong estrogen receptor binders were defined as having log(RBA)>−0.25)
Estrogen receptor [2]
  log RBA: 2.24

## Oc1ccc(-c2ccccc2)cc1 [4-Phenylphenol]
Estrogen receptor [2]
  log RBA: −3.04

## CCC(C)(C)c1ccc(O)cc1 [4-tert-Amylphenol]
Estrogen receptor [2]
  log RBA: −3.26

## CC(C)(C)c1ccc(O)cc1 [4-tert-Butylphenol]
Estrogen receptor [2]
  log RBA: −3.61

## C[C@]12CC[C@@H]3c4ccc(O)cc4CC[C@H]3[C@@H]1CC[C@@H]2O [17β-Estradiol]
Estrogen receptor [1]
  Class: S (strong estrogen receptor binders were defined as having log(RBA)>−0.25)

## O=C1C=CC(=C(c2ccc(O)cc2)c2ccc(O)cc2)C=C1 [Aurin]
Estrogen receptor [1]
  Class: M (Medium estrogen receptor binders were defined as having log(RBA) in between)
Estrogen receptor [2]
  log RBA: −1.49

## CCCCC(CC)COC(=O)c1ccccc1C(=O)OCC(CC)CCCC (centres unmarked) [BIS (2-ethylhexyl) phthalate]
Estrogen receptor [1]
  Class: W (weak estrogen receptor binders were defined as having log(RBA)<−3.0)

## Oc1ccccc1Cc1ccccc1O [BIS (2-hydroxyphenyl)-methane]
Estrogen receptor [1]
  Class: W (weak estrogen receptor binders were defined as having log(RBA)<−3.0)

## Oc1ccc(Cc2ccc(O)cc2)cc1 [BIS (4-hydroxyphenyl)-methane]
Estrogen receptor [1]
  Class: W (weak estrogen receptor binders were defined as having log(RBA)<−3.0)
Estrogen receptor [2]
  log RBA: −3.02

## OCc1ccccc1 [Benzylalcohol]
Estrogen receptor [1]
  Class: W (weak estrogen receptor binders were defined as having log(RBA)<−3.0)

## CCC(C)(c1ccc(O)cc1)c1ccc(O)cc1 [Bisphenol B]
Estrogen receptor [1]
  Class: M (Medium estrogen receptor binders were defined as having log(RBA) in between)
Estrogen receptor [2]
  log RBA: −1.07

## CCCCOC(=O)c1ccc(N)cc1 [Butyl-4-aminobenzoate]
Estrogen receptor [1]
  Class: W (weak estrogen receptor binders were defined as having log(RBA)<−3.0)

## CC(C)CCC[C@@H](C)[C@H]1CC[C@H]2[C@@H]3CC=C4C[C@@H](O)CC[C@]4(C)[C@H]3CC[C@]12C [Cholesterol]
Estrogen receptor [1]
  Class: W (weak estrogen receptor binders were defined as having log(RBA)<−3.0)

## CC12CCC(CC1)C(C)(C)O2 [Cineole]
Estrogen receptor [1]
  Class: W (weak estrogen receptor binders were defined as having log(RBA)<−3.0)

## O=C(O)C=Cc1ccccc1 [Cinnamic acid]
Estrogen receptor [1]
  Class: W (weak estrogen receptor binders were defined as having log(RBA)<−3.0)

## Oc1ccc(C=Cc2ccccc2)cc1 [Compound 4-Stilbenol, 4-Stilbenol]
Estrogen receptor [1]
  Class: W (weak estrogen receptor binders were defined as having log(RBA)<−3.0)

## C[C@]12C[C@H](O)[C@H]3[C@@H](CCC4=CC(=O)CC[C@@]43C)[C@@H]1CC[C@@H]2C(=O)CO [Corticosterone]
Estrogen receptor [1]
  Class: W (weak estrogen receptor binders were defined as having log(RBA)<−3.0)

## Clc1ccc(C(c2ccccc2Cl)C(Cl)Cl)cc1 (centres unmarked) [DDD-o,p′]
Estrogen receptor [1]
  Class: W (weak estrogen receptor binders were defined as having log(RBA)<−3.0)

## Clc1ccc(C(c2ccc(Cl)cc2)C(Cl)Cl)cc1 [DDD-p,p′]
Estrogen receptor [1]
  Class: W (weak estrogen receptor binders were defined as having log(RBA)<−3.0)

## ClC(Cl)=C(c1ccc(Cl)cc1)c1ccc(Cl)cc1 [DDE-p,p′]
Estrogen receptor [1]
  Class: W (weak estrogen receptor binders were defined as having log(RBA)<−3.0)

## Clc1ccc(C(c2ccccc2Cl)C(Cl)(Cl)Cl)cc1 (centres unmarked) [DDT-o,p′]
Estrogen receptor [1]
  Class: W (weak estrogen receptor binders were defined as having log(RBA)<−3.0)
Estrogen receptor [2]
  log RBA: −2.85

## Clc1ccc(C(c2ccc(Cl)cc2)C(Cl)(Cl)Cl)cc1 [DDT-p,p′]
Estrogen receptor [1]
  Class: W (weak estrogen receptor binders were defined as having log(RBA)<−3.0)

## O=c1c(-c2ccc(O)cc2)coc2cc(O)ccc12 [Daidzein]
Estrogen receptor [1]
  Class: M (Medium estrogen receptor binders were defined as having log(RBA) in between)

## CCCCOC(=O)c1ccccc1C(=O)OCCCC [Dibutyl phthalate]
Estrogen receptor [1]
  Class: W (weak estrogen receptor binders were defined as having log(RBA)<−3.0)

## CCOC(=O)c1ccccc1C(=O)OCC [Diethyl phthalate]
Estrogen receptor [1]
  Class: W (weak estrogen receptor binders were defined as having log(RBA)<−3.0)

## CC(CCC(=O)O)(c1ccc(O)cc1)c1ccc(O)cc1 [Diphenolic acid]
Estrogen receptor [1]
  Class: W (weak estrogen receptor binders were defined as having log(RBA)<−3.0)
Estrogen receptor [2]
  log RBA: −3.13

## NCCc1ccc(O)c(O)c1 [Dopamine]
Estrogen receptor [1]
  Class: W (weak estrogen receptor binders were defined as having log(RBA)<−3.0)

## C[C@]12CC[C@@H]3c4ccc(O)cc4[C@@H](O)C[C@H]3[C@@H]1CC[C@@H]2O [Estra-1,3,5(10)-trien-3,6α,17β-triol]
Estrogen receptor [1]
  Class: S (strong estrogen receptor binders were defined as having log(RBA)>−0.25)
Estrogen receptor [2]
  log RBA: −0.15

## C[C@@]12CCC[C@H]1[C@@H]1CCc3cc(O)ccc3[C@H]1CC2 [Estra-1,3,5(10)-trien-3-ol]
Estrogen receptor [1]
  Class: S (strong estrogen receptor binders were defined as having log(RBA)>−0.25)
Estrogen receptor [2]
  log RBA: 1.14

## CCOC(=O)C=Cc1ccccc1 [Ethylcinnamate]
Estrogen receptor [1]
  Class: W (weak estrogen receptor binders were defined as having log(RBA)<−3.0)

## C#C[C@]1(O)CC[C@H]2[C@@H]3CCc4cc(O)ccc4[C@H]3CC[C@@]21C [Ethynyl estradiol]
Estrogen receptor [1]
  Class: S (strong estrogen receptor binders were defined as having log(RBA)>−0.25)

## C[C@]12CCC(=O)C[C@H]1CC[C@@H]1[C@@H]2CC[C@]2(C)[C@@H](O)CC[C@@H]12 [Etiocholan-17β-ol-3-one]
Estrogen receptor [1]
  Class: W (weak estrogen receptor binders were defined as having log(RBA)<−3.0)

## C=CCc1ccc(O)c(OC)c1 [Eugenol]
Estrogen receptor [1]
  Class: W (weak estrogen receptor binders were defined as having log(RBA)<−3.0)

## O=c1c(-c2ccc(O)cc2)coc2cc(O)cc(O)c12 [Genistein]
Estrogen receptor [1]
  Class: M (Medium estrogen receptor binders were defined as having log(RBA) in between)
Estrogen receptor [3]
  Class Input: S (Strong binders to the estrogen receptor were classified as having a log (RBA) over 0.0)

## CCCCCCC=O [Heptanal]
Estrogen receptor [1]
  Class: W (weak estrogen receptor binders were defined as having log(RBA)<−3.0)

## COc1ccc([C@@H]2CC(=O)c3c(O)cc(O)cc3O2)cc1O [Hesperetin]
Estrogen receptor [1]
  Class: W (weak estrogen receptor binders were defined as having log(RBA)<−3.0)

## CCCCCCO [Hexylalcohol]
Estrogen receptor [1]
  Class: W (weak estrogen receptor binders were defined as having log(RBA)<−3.0)

## CC=Cc1ccc(O)c(OC)c1 [Isoeugenol]
Estrogen receptor [1]
  Class: W (weak estrogen receptor binders were defined as having log(RBA)<−3.0)

## COc1ccc2[nH]cc(CCNC(C)=O)c2c1 [Melatonin]
Estrogen receptor [1]
  Class: W (weak estrogen receptor binders were defined as having log(RBA)<−3.0)

## C#C[C@]1(O)CC[C@H]2[C@@H]3CCc4cc(OC)ccc4[C@H]3CC[C@@]21C [Mestranol]
Estrogen receptor [1]
  Class: S (strong estrogen receptor binders were defined as having log(RBA)>−0.25)
Estrogen receptor [2]
  RBA: 035

## C(=C(c1ccccc1)c1ccccc1)c1ccccc1 [Triphenylethylene]
Estrogen receptor [1]
  Class: W (weak estrogen receptor binders were defined as having log(RBA)<−3.0)
Estrogen receptor [2]
  log RBA: −2.78

## O=P(Oc1ccccc1)(Oc1ccccc1)Oc1ccccc1 [Triphenylphosphate]
Estrogen receptor [1]
  Class: W (weak estrogen receptor binders were defined as having log(RBA)<−3.0)

## COc1cc(C=O)ccc1O [Vanillin]
Estrogen receptor [1]
  Class: W (weak estrogen receptor binders were defined as having log(RBA)<−3.0)
